Assay results taken from article PMC11277489, “Novel Piperazine Derivatives of Vindoline as Anticancer Agents” (International Journal of Molecular Sciences, 2024).
Like-named read-outs stand apart in the source and are kept apart here.

Legend:
UACC-257 = assay: NCI60 one-dose screen (10 μM), Melanoma; format: cell-based; conditions: Homo sapiens
U251 = assay: NCI60 one-dose screen (10 μM), CNS Cancer; format: cell-based; conditions: Homo sapiens
SNB-19 = assay: NCI60 one-dose screen (10 μM), CNS Cancer; format: cell-based; conditions: Homo sapiens
SN12C = assay: NCI60 one-dose screen (10 μM), Renal Cancer; format: cell-based; conditions: Homo sapiens, read-out: Growth percent rate
SF-295 = assay: NCI60 one-dose screen (10 μM), CNS Cancer; format: cell-based; conditions: Homo sapiens
NCI-H460 = assay: NCI60 one-dose screen (10 μM), Non-small Cell Lung Cancer; format: cell-based; conditions: Homo sapiens
ACHN = assay: NCI60 one-dose screen (10 μM), Renal Cancer; format: cell-based; conditions: Homo sapiens, read-out: Growth percent rate
A498 = assay: NCI60 one-dose screen (10 μM), Renal Cancer; format: cell-based; conditions: Homo sapiens
SF-539 = assay: NCI60 one-dose screen (10 μM), CNS Cancer; format: cell-based, human; conditions: Homo sapiens
MCF7 = assay: NCI60 one-dose screen (10 μM), Breast Cancer; format: cell-based; conditions: Homo sapiens
HCC-2998 = assay: NCI60 one-dose screen (10 μM), Colon Cancer; format: cell-based; conditions: Homo sapiens
TK-10 = assay: NCI60 one-dose screen (10 μM), Renal Cancer; format: cell-based; conditions: Homo sapiens
HCT-116 = assay: NCI60 one-dose screen (10 μM), Colon Cancer; format: cell-based; conditions: Homo sapiens
MOLT-4 = assay: NCI60 one-dose screen (10 μM), Leukemia; format: cell-based, human; conditions: Homo sapiens
NCI-H23 = assay: NCI60 one-dose screen (10 μM), Non-small Cell Lung Cancer; format: cell-based; conditions: Homo sapiens
CAKI-1 = assay: NCI60 one-dose screen (10 μM), Renal Cancer; format: cell-based; conditions: Homo sapiens
LOX IMVI = assay: NCI60 one-dose screen (10 μM), Melanoma; format: cell-based, human; conditions: Homo sapiens, LOX IMVI, read-out: Growth percent rate
K-562 = assay: NCI60 one-dose screen (10 μM), Leukemia; format: cell-based; conditions: Homo sapiens
COLO 205 = assay: NCI60 one-dose screen (10 μM), Colon Cancer; format: cell-based, human; conditions: Homo sapiens
786–0 = assay: NCI60 one-dose screen (10 μM), Renal Cancer; format: cell-based; conditions: Homo sapiens
SF-268 = assay: NCI60 one-dose screen (10 μM), CNS Cancer; format: cell-based; conditions: Homo sapiens
HOP-62 = assay: NCI60 one-dose screen (10 μM), Non-small Cell Lung Cancer; format: cell-based; conditions: Homo sapiens
NCI-H322M = assay: as above; format: cell-based; conditions: Homo sapiens, read-out: Growth percent rate
RXF 393 = assay: NCI60 one-dose screen (10 μM), Renal Cancer; format: cell-based, human; conditions: Homo sapiens
MDA-MB-435 = assay: NCI60 one-dose screen (10 μM), Melanoma; format: cell-based; conditions: Homo sapiens
HL-60(TB) = assay: NCI60 one-dose screen (10 μM), Leukemia; format: cell-based; conditions: Homo sapiens
NCI-H522 = assay: NCI60 one-dose screen (10 μM), Non-small Cell Lung Cancer; format: cell-based; conditions: Homo sapiens
SK-MEL-5 = assay: NCI60 one-dose screen (10 μM), Melanoma; format: cell-based, human; conditions: Homo sapiens
EKVX = assay: NCI60 one-dose screen (10 μM), Non-small Cell Lung Cancer; format: cell-based; conditions: Homo sapiens, read-out: Growth percent rate
M14 = assay: NCI60 one-dose screen (10 μM), Melanoma; format: cell-based; conditions: Homo sapiens
OVCAR-4 = assay: NCI60 one-dose screen (10 μM), Ovarian Cancer; format: cell-based; conditions: Homo sapiens
HT29 = assay: NCI60 one-dose screen (10 μM), Colon Cancer; format: cell-based; conditions: Homo sapiens
[1] = system: 60 human tumor cell lines (NCI60); assay: NCI60 one-dose screen (10 μM), whole panel; format: cell-based; conditions: for antiproliferative effect (in words): 10 μM one-dose, NCI60; for activity at 10 µM: read-out: Growth percent rate, Mean
RPMI-8226 = assay: NCI60 one-dose screen (10 μM), Leukemia; format: cell-based; conditions: Homo sapiens
SK-MEL-28 = assay: NCI60 one-dose screen (10 μM), Melanoma; format: cell-based; conditions: Homo sapiens
HS 578T = assay: NCI60 one-dose screen (10 μM), Breast Cancer; format: cell-based; conditions: Homo sapiens, read-out: Growth percent rate
IGROV1 = assay: NCI60 one-dose screen (10 μM), Ovarian Cancer; format: cell-based; conditions: Homo sapiens
SW-620 = assay: NCI60 one-dose screen (10 μM), Colon Cancer; format: cell-based; conditions: Homo sapiens
MALME-3M = assay: NCI60 one-dose screen (10 μM), Melanoma; format: cell-based; conditions: Homo sapiens, read-out: Growth percent rate
OVCAR-8 = assay: NCI60 one-dose screen (10 μM), Ovarian Cancer; format: cell-based; conditions: Homo sapiens
A549/ATCC = assay: NCI60 one-dose screen (10 μM), Non-small Cell Lung Cancer; format: cell-based; conditions: Homo sapiens
HCT-15 = assay: NCI60 one-dose screen (10 μM), Colon Cancer; format: cell-based; conditions: Homo sapiens
[2] = 10 μM, Non-small Cell Lung Cancer

CCC12C=CCN3CC[C@@]4(c5ccc(OC)cc5N(C)[C@H]4[C@@](O)(C(=O)OC)[C@@H]1OC(C)=O)[C@@H]32 (some centres unmarked) [Compound 1, vindoline]
activity at 10 µM (UACC-257; UACC-257, read-out: Growth percent rate): 95.8% | activity at 10 µM (U251; U-251, read-out: Growth percent rate): 95.9% | activity at 10 µM (SNB-19; SNB-19, read-out: Growth percent rate): 102% | activity at 10 µM (SN12C): 100% | activity at 10 µM (SF-295; SF-295, read-out: Growth percent rate): 103% | activity at 10 µM (NCI-H460; NCI-H460, read-out: Growth percent rate): 120% | activity at 10 µM (ACHN): 105% | activity at 10 µM (A498; A498, read-out: Growth percent rate): 137% | activity at 10 µM (SF-539; SF-539, read-out: Growth percent rate): 116% | activity at 10 µM (MCF7; MCF7, read-out: Growth percent rate): 89.9% | activity at 10 µM (HCC-2998; HCC 2998, read-out: Growth percent rate): 101% | activity at 10 µM (TK-10; TK-10, read-out: Growth percent rate): 97.5% | activity at 10 µM (HCT-116; HCT-116, read-out: Growth percent rate): 116% | activity at 10 µM (MOLT-4; MOLT-4, read-out: Growth percent rate): 92.7% | activity at 10 µM (NCI-H23; NCI-H23, read-out: Growth percent rate): 95.3% | activity at 10 µM (CAKI-1; CAKI-1, read-out: Growth percent rate): 105% | activity at 10 µM (LOX IMVI): 95.3% | activity at 10 µM (K-562; K562, read-out: Growth percent rate): 89.3% | activity at 10 µM (COLO 205; COLO 205, read-out: Growth percent rate): 111% | activity at 10 µM (786–0; 786-0, read-out: Growth percent rate): 97.5% | activity at 10 µM (SF-268; SF-268, read-out: Growth percent rate): 122% | activity at 10 µM (HOP-62; HOP-62, read-out: Growth percent rate): 99% | activity at 10 µM (NCI-H322M): 109% | activity at 10 µM (RXF 393; RXF 393, read-out: Growth percent rate): 98% | activity at 10 µM (MDA-MB-435; MDA-MB-435, read-out: Growth percent rate): 104% | activity at 10 µM (HL-60(TB); HL-60, read-out: Growth percent rate): 96.7% | activity at 10 µM (NCI-H522; NCI-H522, read-out: Growth percent rate): 99.7% | activity at 10 µM (SK-MEL-5; SK-MEL-5, read-out: Growth percent rate): 89.2% | activity at 10 µM (EKVX): 92% | activity at 10 µM (M14; M14, read-out: Growth percent rate): 105% | activity at 10 µM (OVCAR-4; OVCAR-4, read-out: Growth percent rate): 136% | activity at 10 µM (HT29; HT-29, read-out: Growth percent rate): 108% | antiproliferative effect (in words) [1]: a notable antiproliferative effect was not shown | antiproliferative effect (in words) ([1]; listed as vindoline): does not show any anticancer effect | activity at 10 µM ([1]; Homo sapiens): 107% | activity at 10 µM (RPMI-8226; RPMI-8226, read-out: Growth percent rate): 105% | activity at 10 µM (SK-MEL-28; SK-MEL-28, read-out: Growth percent rate): 134% | activity at 10 µM (HS 578T; Hs-578T): 98% | activity at 10 µM (IGROV1; IGROV-1, read-out: Growth percent rate): 145% | activity at 10 µM (SW-620; SW-620, read-out: Growth percent rate): 121% | activity at 10 µM (MALME-3M; Malme-3M): 147% | activity at 10 µM (OVCAR-8; OVCAR-8, read-out: Growth percent rate): 103% | activity at 10 µM (A549/ATCC; A549, read-out: Growth percent rate): 101% | activity at 10 µM (HCT-15; HCT-15, read-out: Growth percent rate): 103%

CCC12C=CCN3CCC4(c5ccc(OC)cc5N(C)C4C(O)(C(=O)OC)C1OC(=O)CCCN1CCN(C)CC1)C32 (centres unmarked) [Compound 3]
activity at 10 µM (UACC-257; 10 μM, UACC-257, Melanoma, read-out: Growth percent rate): 90.1% | activity at 10 µM (U251; U-251, 10 μM, U251, CNS Cancer, read-out: Growth percent rate): 89.9% | activity at 10 µM (SNB-19; 10 μM, SNB-19, CNS Cancer, read-out: Growth percent rate): 90.6% | activity at 10 µM (SN12C; 10 μM, Renal Cancer): 89.1% | activity at 10 µM (SF-295; 10 μM, SF-295, CNS Cancer, read-out: Growth percent rate): 96.2% | activity at 10 µM (NCI-H460; 10 μM, NCI-H460, Non-small Cell Lung Cancer, read-out: Growth percent rate): 97.7% | activity at 10 µM (ACHN; 10 μM, Renal Cancer): 103% | activity at 10 µM (A498; 10 μM, A498, Renal Cancer, read-out: Growth percent rate): 83.2% | activity at 10 µM (SF-539; 10 μM, SF-539, CNS Cancer, read-out: Growth percent rate): 88.1% | activity at 10 µM (MCF7; 10 μM, MCF7, Breast Cancer, read-out: Growth percent rate): 78% | activity at 10 µM (HCC-2998; 10 μM, HCC-2998, Colon Cancer, read-out: Growth percent rate): 92.4% | activity at 10 µM (TK-10; 10 μM, TK-10, Renal Cancer, read-out: Growth percent rate): 99% | activity at 10 µM (HCT-116; 10 μM, HCT-116, Colon Cancer, read-out: Growth percent rate): 112% | activity at 10 µM (MOLT-4; 10 μM, MOLT-4, Leukemia, read-out: Growth percent rate): 102% | activity at 10 µM (NCI-H23; 10 μM, NCI-H23, Non-small Cell Lung Cancer, read-out: Growth percent rate): 90% | activity at 10 µM (CAKI-1; 10 μM, CAKI-1, Renal Cancer, read-out: Growth percent rate): 54.5% | activity at 10 µM (LOX IMVI; 10 μM, Melanoma): 84% | activity at 10 µM (K-562; K562, 10 μM, K-562, Leukemia, read-out: Growth percent rate): 66.9% | activity at 10 µM (COLO 205; 10 μM, COLO 205, Colon Cancer, read-out: Growth percent rate): 90% | activity at 10 µM (786–0; 10 μM, 786-0, Renal Cancer, read-out: Growth percent rate): 106% | activity at 10 µM (SF-268; 10 μM, SF-268, CNS Cancer, read-out: Growth percent rate): 90.8% | activity at 10 µM (HOP-62; 10 μM, HOP-62, Non-small Cell Lung Cancer, read-out: Growth percent rate): 79.9% | activity at 10 µM (NCI-H322M; [2]): 96.9% | activity at 10 µM (RXF 393; 10 μM, RXF 393, Renal Cancer, read-out: Growth percent rate): 73% | activity at 10 µM (MDA-MB-435; 10 μM, MDA-MB-435, Melanoma, read-out: Growth percent rate): 28.9% | activity at 10 µM (HL-60(TB); 10 μM, HL-60(TB), Leukemia, read-out: Growth percent rate): 91% | activity at 10 µM (NCI-H522; 10 μM, NCI-H522, Non-small Cell Lung Cancer, read-out: Growth percent rate): 45.9% | activity at 10 µM (SK-MEL-5; 10 μM, SK-MEL-5, Melanoma, read-out: Growth percent rate): 74.5% | activity at 10 µM (EKVX; [2]): 96.5% | activity at 10 µM (M14; 10 μM, M14, Melanoma, read-out: Growth percent rate): 103% | activity at 10 µM (OVCAR-4; 10 μM, OVCAR-4, Ovarian Cancer, read-out: Growth percent rate): 101% | activity at 10 µM (HT29; HT-29, 10 μM, HT29, Colon Cancer, read-out: Growth percent rate): 98.8% | activity at 10 µM ([1]; 10 μM, mean over 60 human cancer cell lines): 87.8% | activity at 10 µM (RPMI-8226; 10 μM, RPMI-8226, Leukemia, read-out: Growth percent rate): 112% | activity at 10 µM (SK-MEL-28; 10 μM, SK-MEL-28, Melanoma, read-out: Growth percent rate): 85% | activity at 10 µM (HS 578T; 10 μM, HS 578T, Breast Cancer): 78.6% | activity at 10 µM (IGROV1; IGROV-1, 10 μM, IGROV1, Ovarian Cancer, read-out: Growth percent rate): 102% | activity at 10 µM (SW-620; 10 μM, SW-620, Colon Cancer, read-out: Growth percent rate): 87% | activity at 10 µM (MALME-3M; 10 μM, MALME-3M, Melanoma): 77.2% | activity at 10 µM (OVCAR-8; 10 μM, OVCAR-8, Ovarian Cancer, read-out: Growth percent rate): 92.9% | activity at 10 µM (A549/ATCC; 10 μM, A549/ATCC, Non-small Cell Lung Cancer, read-out: Growth percent rate): 98.2% | activity at 10 µM (HCT-15; 10 μM, HCT-15, Colon Cancer, read-out: Growth percent rate): 91.3%
